Reference: patent publication US20060159727A1, “Prevention of Systemic Microbial Infection” (priority 2005, published 2006)

Columns and labels:
E. coli = details: cited from earlier work
[1] = system: Salmonella enteriditis phage type VIII (SePT8); test: Susceptibility test: paper disk zone of inhibition on inoculated agar plate; format: cell-based; details: paper disk impregnated with fixed concentration of test material, 2 days
Experimental: An agar plate was uniformly inoculated with salmonella and a paper disk impregnated with a fixed concentration of test material was placed on top of the agar surface. […] The bacteria used was Salmonella enteriditis phage type VIII (SePT8). The study was conducted for 2 days. A disk soaked in sterile water was used as control.

salmonella = test: Concentration of salmonella in organs of challenged chicks fed test material; format: in vivo; details: chicks fed supplemented diet from hatch, sacrificed at 14 days
Experimental: Newly hatched chicks were fed a diet supplemented with the test materials, at 7 days of age, chicks were challenged 0.2 ml of a 2×10^9 salmonella culture. Chicks were sacrificed at 14 days of age (1 week after bacterial challenge), their organs dissected and cultured to determine bacterial counts.

| Molecule | citral concentration in growth media that reduced the concentration of E. coli (E. coli) | citral concentration with bactericidal effect (E. coli; growth media, E. coli) | Zone of Inhibition [1] | concentration of salmonella in Liver (salmonella; challenged at 7 days with 0.2 ml of 2×10^9 culture, liver) | concentration of salmonella in Ceca (salmonella; challenged at 7 days, ceca) | concentration of salmonella in Colon (salmonella; challenged at 7 days, colon) | concentration of salmonella in Duodenum (salmonella; challenged at 7 days, duodenum) | concentration of salmonella in Spleen (salmonella; challenged at 7 days, spleen) |
| --- | --- | --- | --- | --- | --- | --- | --- | --- |
| CC(C)=CCCC(C)=CC=O [citral] | more than 0.01% | 0.08% |  |  |  |  |  |  |
| O=S(=O)([O-])[O-].[Cu+2] [Copper Sulfate] |  |  | 1.444 mm | 11 cfu | 54 cfu | 74 cfu | 19 cfu | 10 cfu |
| Gentamycin |  |  | 1.300 mm |  |  |  |  |  |
